Calls of active or inactive are those of the source. The rule behind the calls is not given here.
How the values were obtained:
Pseudomonas aeruginosa [1] = assay: Antibacterial activity against Pseudomonas aeruginosa MSCL 331 at 10 mg/ml after 24 hrs by agar dish diffusion method; format: functional; settings: for zone of inhibition at 10000 µg/mL: MSCL 331, 24 h, read-out: DIZ
MG-22A [2] = assay: Cytotoxicity against mouse MG-22A cells assessed as cell viability at 6.25 to 50 ug/ml after 72 hrs by MTT assay; format: functional; settings: for CC50: read-out: LC50 (the source's name)
Escherichia coli [3] = assay: Antibacterial activity against Escherichia coli MSCL 332 at 10 mg/ml after 24 hrs by agar dish diffusion method; format: functional; settings: MSCL 332, 24 h, read-out: DIZ
Aspergillus niger [4] = assay: Antifungal activity against Aspergillus niger MSCL 324 after 24 hrs by broth dilution method; format: functional; settings: MSCL 324, 24 h
[5] = (§1) Cytotoxicity against human HT1080 cells assessed as cell viability at 6.25 to 50 ug/ml after 72 hrs by MTT assay; format: functional; settings: HT-1080, 72 h, read-out: LC50 (the source's name)
Bacillus cereus [6] = assay: Antibacterial activity against Bacillus cereus MSCL 330 at 10 mg/ml after 24 hrs by agar dish diffusion method; format: functional; settings: MSCL 330, 24 h, read-out: DIZ
Candida albicans [7] = assay: Fungicidal activity against Candida albicans MSCL 378 incubated for 24 hrs followed by colony transfer to agar plates for 24 hrs by colony counting based assay; format: functional; settings: MSCL 378, 24 h, read-out: MFC99.9
[8] = Cytotoxicity against mouse NIH/3T3 cells assessed as cell viability at 6.25 to 50 ug/ml by neutral red-based assay; settings: nih3t3
Proteus mirabilis [9] = assay: Antibacterial activity against Proteus mirabilis MSCL 590 at 10 mg/ml after 24 hrs by agar dish diffusion method; format: functional; settings: for zone of inhibition at 10000 µg/mL: MSCL 590, 24 h, read-out: DIZ
Bacillus cereus [10] = assay: Bactericidal activity against Bacillus cereus MSCL 330 incubated for 24 hrs followed by colony transfer to agar plates for 24 hrs by colony counting based assay; format: functional; settings: MSCL 330, 24 h, read-out: MBC99.9
MG-22A [11] = assay: Cytotoxicity against mouse MG-22A cells assessed as cell viability at 6.25 to 50 ug/ml by crystal violet-based assay; format: functional; settings: for CC50: read-out: LC50 (the source's name)
Bacillus cereus [12] = assay: Antibacterial activity against Bacillus cereus MSCL 330 after 24 hrs by broth dilution method; format: functional; settings: MSCL 330, 24 h
Pseudomonas aeruginosa [13] = assay: Antibacterial activity against Pseudomonas aeruginosa MSCL 331 at 5 mg/ml after 24 hrs by agar dish diffusion method; format: functional; settings: for zone of inhibition at 5000 µg/mL: MSCL 331, 24 h, read-out: DIZ
Staphylococcus aureus [14] = assay: Antibacterial activity against Staphylococcus aureus MSCL 334 at 10 mg/ml after 24 hrs by agar dish diffusion method; format: functional; settings: for zone of inhibition at 10000 µg/mL: MSCL 334, 24 h, read-out: DIZ
Escherichia coli [15] = assay: Bactericidal activity against Escherichia coli MSCL 332 incubated for 24 hrs followed by colony transfer to agar plates for 24 hrs by colony counting based assay; format: functional; settings: MSCL 332, 24 h, read-out: MBC99.9
Aspergillus niger [16] = assay: Antifungal activity against Aspergillus niger MSCL 324 at 5 mg/ml after 48 hrs by agar dish diffusion method; format: functional; settings: for zone of inhibition at 5000 µg/mL: MSCL 324, 48 h, read-out: DIZ
[17] = (§2) Cytotoxicity against human HT1080 cells assessed as cell viability at 6.25 to 50 ug/ml by crystal violet-based assay; format: functional; settings: HT-1080, read-out: LC50 (the source's name)
Staphylococcus aureus [18] = assay: Bactericidal activity against Staphylococcus aureus MSCL 334 incubated for 24 hrs followed by colony transfer to agar plates for 24 hrs by colony counting based assay; format: functional; settings: MSCL 334, 24 h, read-out: MBC99.9
Candida albicans [19] = assay: Antifungal activity against Candida albicans MSCL 378 at 5 mg/ml after 48 hrs by agar dish diffusion method; format: functional; settings: MSCL 378, 48 h, read-out: DIZ
Candida albicans [20] = assay: Antifungal activity against Candida albicans MSCL 378 after 24 hrs by broth dilution method; format: functional; settings: MSCL 378, 24 h
MG-22A [21] = assay: Induction of nitric oxide production in mouse MG-22A cells by Griess assay; format: functional; parameters: concentration or dose not given beside the values
Proteus mirabilis [22] = assay: Antibacterial activity against Proteus mirabilis MSCL 590 at 5 mg/ml after 24 hrs by agar dish diffusion method; format: functional; settings: for zone of inhibition at 5000 µg/mL: MSCL 590, 24 h, read-out: DIZ
Escherichia coli [23] = assay: Antibacterial activity against Escherichia coli MSCL 332 at 5 mg/ml after 24 hrs by agar dish diffusion method; format: functional; settings: MSCL 332, 24 h, read-out: DIZ
Bacillus cereus [24] = assay: Antibacterial activity against Bacillus cereus MSCL 330 at 5 mg/ml after 24 hrs by agar dish diffusion method; format: functional; settings: MSCL 330, 24 h, read-out: DIZ
Aspergillus niger [25] = assay: Antifungal activity against Aspergillus niger MSCL 324 at 10 mg/ml after 48 hrs by agar dish diffusion method; format: functional; settings: MSCL 324, 48 h, read-out: DIZ
HT-1080 [26] = assay: Induction of nitric oxide production in human HT1080 cells by Griess assay; format: functional; parameters: concentration or dose not given beside the values
Aspergillus niger [27] = assay: Fungicidal activity against Aspergillus niger MSCL 324 incubated for 24 hrs followed by colony transfer to agar plates for 24 hrs by colony counting based assay; format: functional; settings: MSCL 324, 24 h, read-out: MFC99.9
Candida albicans [28] = assay: Antifungal activity against Candida albicans MSCL 378 at 10 mg/ml after 48 hrs by agar dish diffusion method; format: functional; settings: MSCL 378, 48 h, read-out: DIZ
Staphylococcus aureus [29] = assay: Antibacterial activity against Staphylococcus aureus MSCL 334 after 24 hrs by broth dilution method; format: functional; settings: MSCL 334, 24 h
Staphylococcus aureus [30] = assay: Antibacterial activity against Staphylococcus aureus MSCL 334 at 5 mg/ml after 24 hrs by agar dish diffusion method; format: functional; settings: for zone of inhibition at 5000 µg/mL: MSCL 334, 24 h, read-out: DIZ
Escherichia coli [31] = assay: Antibacterial activity against Escherichia coli MSCL 332 after 24 hrs by broth dilution method; format: functional; settings: MSCL 332, 24 h
HT-1080 [32] = assay: as §1; format: functional
HT-1080 [33] = assay: as §2; format: functional
CCRF S-180 [34] = assay: Antitumor activity against mouse S180 cells allografted into ICR mouse assessed as tumor growth inhibition at 2.5 mg/kg, sc administered on day 1,2,3 and 7 after 24 hrs tumor transplantation measured on day 9; format: functional; settings: CCRF S-180, sc, read-out: TGI
CCRF S-180 [35] = assay: Antitumor activity against mouse S180 cells allografted into ICR mouse assessed as tumor growth inhibition at 1.5 mg/kg, sc administered on day 1,2,3 and 7 after 24 hrs tumor transplantation measured on day 9; format: functional, organism-based

Compound | diameter of the inhibition zone (DIZ) (Pseudomonas aeruginosa [1]) | CC50 (MG-22A [2]) [µM] | zone of inhibition at 10000 µg/mL (Escherichia coli [3]) [mm] | MIC (Aspergillus niger [4]) [µg/mL] | CC50 [5] [µM] | zone of inhibition at 10000 µg/mL (Bacillus cereus [6]) [mm] | LC50 [8] | CC50 (MG-22A [11]) [µM] | zone of inhibition at 10000 µg/mL (Staphylococcus aureus [14]) [mm] | CC50 [17] [µM] | zone of inhibition at 5000 µg/mL (Candida albicans [19]) [mm] | Activity (MG-22A [21]) [%] | zone of inhibition at 5000 µg/mL (Escherichia coli [23]) [mm] | zone of inhibition at 5000 µg/mL (Bacillus cereus [24]) [mm] | zone of inhibition at 10000 µg/mL (Aspergillus niger [25]) [mm] | Activity (HT-1080 [26]) [%] | zone of inhibition at 10000 µg/mL (Candida albicans [28]) [mm] | zone of inhibition at 5000 µg/mL (Staphylococcus aureus [30]) [mm] | zone of inhibition at 10000 µg/mL (Proteus mirabilis [9]) [mm] | zone of inhibition at 5000 µg/mL (Proteus mirabilis [22]) [mm] | also measured
CCCCCCCOCCc1sc[n+](C)c1C.[I-] | inactive | 18.2 | 16 | > 256 | 15.6 | 13 | 467.3 µM | 20.8 | 21 | 15.6 | 13 | 100 | 11 | 12 | 11 | 200 | 20 | 20 |  |  | MFC (Candida albicans [7]): > 256 µg/mL; diameter of the inhibition zone (DIZ) (Proteus mirabilis [9]): inactive; MBC (Bacillus cereus [10]): > 256 µg/mL; MIC (Bacillus cereus [12]): > 256 µg/mL; diameter of the inhibition zone (DIZ) (Pseudomonas aeruginosa [13]): inactive; MBC (Escherichia coli [15]): 256 µg/mL; diameter of the inhibition zone (DIZ) (Aspergillus niger [16]): inactive; MBC (Staphylococcus aureus [18]): 64 µg/mL; MIC (Candida albicans [20]): 256 µg/mL; diameter of the inhibition zone (DIZ) (Proteus mirabilis [22]): inactive; MFC (Aspergillus niger [27]): > 256 µg/mL; MIC (Staphylococcus aureus [29]): 16 µg/mL; MIC (Escherichia coli [31]): 256 µg/mL
Cc1c(CCO)sc[n+]1C.[I-] | inactive |  | 10 |  |  | 8 | 643 µg/mL |  |  |  | 13 | 3 | 10 | 8 | 15 | 2 | 13 |  | 8 | 8 | LC50 (MG-22A [2]): inactive; LC50 (HT-1080 [32]): inactive; LC50 (MG-22A [11]): inactive; diameter of the inhibition zone (DIZ) (Pseudomonas aeruginosa [13]): inactive; diameter of the inhibition zone (DIZ) (Staphylococcus aureus [14]): inactive; zone of inhibition at 5000 µg/mL (Aspergillus niger [16]): 9 mm; LC50 (HT-1080 [33]): inactive; diameter of the inhibition zone (DIZ) (Staphylococcus aureus [30]): inactive
CCCCCCCCCCCOCCc1sc[n+](C)c1C.[I-] |  | 1.82 | 27 |  | 1.82 | 26 | 93.3 µM | 1.36 | 32 | 1.82 | 28 | 150 | 25 | 25 | 17 | 150 | 30 | 29 | 18 | 17 | zone of inhibition at 10000 µg/mL (Pseudomonas aeruginosa [1]): 12 mm; inhibition in vivo at 2.5 mg/kg (CCRF S-180 [34]): 56%; inhibition (CCRF S-180 [35]): inactive; zone of inhibition at 5000 µg/mL (Pseudomonas aeruginosa [13]): 11 mm; diameter of the inhibition zone (DIZ) (Aspergillus niger [16]): inactive
Cc1ncsc1CCO |  |  |  |  |  |  |  |  |  |  |  | 4 |  |  |  | 4 |  |  |  |  | LC50 (MG-22A [2]): inactive; LC50 (HT-1080 [32]): inactive; LC50 (MG-22A [11]): inactive; LC50 (HT-1080 [33]): inactive
CCCCCCCCCC[n+]1csc(CCOCCCCCCC)c1C.[I-] |  | 1.96 | 20 | 16 | 3.93 | 21 | 19.6 µM | 0.19 | 22 | 3.93 | 20 | 350 | 15 | 20 | 19 | 250 | 21 | 21 | 12 | 11 | zone of inhibition at 10000 µg/mL (Pseudomonas aeruginosa [1]): 20 mm; MFC (Candida albicans [7]): 16 µg/mL; MBC (Bacillus cereus [10]): 32 µg/mL; MIC (Bacillus cereus [12]): 8 µg/mL; zone of inhibition at 5000 µg/mL (Pseudomonas aeruginosa [13]): 16 mm; MBC (Escherichia coli [15]): 64 µg/mL; zone of inhibition at 5000 µg/mL (Aspergillus niger [16]): 17 mm; MBC (Staphylococcus aureus [18]): 4 µg/mL; MIC (Candida albicans [20]): 16 µg/mL; MFC (Aspergillus niger [27]): 16 µg/mL; MIC (Staphylococcus aureus [29]): 1 µg/mL; MIC (Escherichia coli [31]): 32 µg/mL

From ChEMBL document CHEMBL3751718, “Synthesis and biological evaluation of lipid-like 5-(2-hydroxyethyl)-4-methyl-1,3-thiazole derivatives as potential anticancer and antimicrobial agents” (Medchemcomm, 2015)
